Earlier results, collected in US12509559B2, “Bacterial beta-lactamase responsive hydrogels” (Brown University, priority 2019, dated 2025).

Conditions: adamantane in β-cyclodextrin cavity

Structure (SMILES): C1C2CC3CC1CC(C2)C3 [adamantane]
- association constant, K: ~10^5 M^−1
